In patent publication US10597388B2, “Pyridazinone herbicides” (FMC CORPORATION, priority 2014, dated 2020):

Tests used:
Test in all cases: Test D controlled growth environment herbicide test, pre- and postemergence
Assay type in all cases: in vivo
[1] = tested on: buckwheat, wild (wild buckwheat, Polygonum convolvulus)
Procedure, shortened: (§1)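 Rating is visual, 0–100 scale (100 = complete control), made against untreated plants 14–21 d after treatment in controlled growth conditions. Postemergence sprays went onto 1- to 4-leaf plants in peat medium; preemergence sprays onto silt loam after sowing; formulation included a surfactant.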

[2] = tested on: radish, wild (wild radish, Raphanus raphanistrum)
Procedure, shortened: as §1

[3] = tested on: galium (catchweed bedstraw, Galium aparine)
Procedure, shortened: as §1

[4] = tested on: deadnettle (henbit deadnettle, Lamium amplexicaule)
Procedure, shortened: as §1

[5] = tested on: bluegrass (annual bluegrass, Poa annua)
Procedure, shortened: as §1

[6] = tested on: speedwell (bird's-eye speedwell, Veronica persica)
Procedure, shortened: as §1

[7] = tested on: canarygrass (Phalaris minor)
Procedure, shortened: as §1

[8] = tested on: barley, spring (spring barley, Hordeum vulgare)
Procedure, shortened: as §1

[9] = tested on: field violet (Viola arvensis)
Procedure, shortened: as §1

[10] = tested on: oilseed rape (Brassica napus)
Procedure, shortened: as §1

[11] = tested on: ryegrass, Italian (Italian ryegrass, Lolium multiflorum)
Procedure, shortened: as §1

kochia (Kochia scoparia) = tested on: kochia (Kochia scoparia)
Procedure, shortened: as §1

[12] = Postemergence, 31 g ai/ha, scale 0 to 100 (0 no effect, 100 complete control)
[13] = Postemergence, 125 g ai/ha, visual rating on scale 0 (no effect) to 100 (complete control), 14 to 21 d
[14] = Postemergence, 250 g ai/ha, scale 0 to 100 (0 no effect, 100 complete control)
[15] = Preemergence, 62 g ai/ha, scale 0 to 100 (0 no effect, 100 complete control)
[16] = Preemergence, 125 g ai/ha, scale 0 to 100 (0 no effect, 100 complete control)
[17] = Preemergence, 250 g ai/ha, scale 0 to 100, 0 no effect, 100 complete control
[18] = postemergence, 62 g ai/ha, scale 0 to 100, 0 no effect, 100 complete control

Structure (SMILES): Cc1cc(C)c2sc(C)c(-c3c(O)c(C)nn(C)c3=O)c2c1 [Compound 2, 5-hydroxy-2,6-dimethyl-4-(2,5,7-trimethylbenzo[b]thien-3-yl)-3(2H)-pyridazinone]
- Buckwheat, Wild plant response rating [1, 12]: 85
- Plant response rating, Buckwheat, Wild [1, 13]: 100
- Plant response rating, Buckwheat, Wild [1, 14]: 100
- Plant response rating, Buckwheat, Wild [1, 15]: 10
- Plant response rating, Buckwheat, Wild [1, 16]: 100
- Plant response rating, Buckwheat, Wild [1, 17]: 100
- Plant response rating, Buckwheat, Wild [1, 18]: 95
- Radish, Wild plant response rating [2, 12]: 25
- Plant response rating, Radish, Wild [2, 13]: 65
- Plant response rating, Radish, Wild [2, 14]: 60
- Plant response rating (scale of 0 to 100), Radish, Wild ([2]; Preemergence, 31 g ai/ha): 0
- Plant response rating, Radish, Wild [2, 15]: 5
- Plant response rating, Radish, Wild [2, 16]: 15
- Plant response rating, Radish, Wild [2, 17]: 100
- Plant response rating, Radish, Wild [2, 18]: 55
- Galium plant response rating [3, 12]: 85
- Plant response rating, Galium [3, 13]: 100
- Plant response rating, Galium [3, 14]: 100
- Plant response rating (scale of 0 to 100), Galium ([3]; Preemergence, 31 g ai/ha): 100
- Plant response rating, Galium [3, 15]: 85
- Plant response rating, Galium [3, 16]: 100
- Plant response rating, Galium [3, 17]: 100
- Plant response rating, Galium [3, 18]: 100
- Deadnettle plant response rating [4, 12]: 60
- Plant response rating, Deadnettle [4, 13]: 60
- Plant response rating, Deadnettle [4, 14]: 60
- Plant response rating (scale of 0 to 100), Deadnettle ([4]; Preemergence, 31 g ai/ha): 0
- Plant response rating, Deadnettle [4, 15]: 0
- Plant response rating, Deadnettle [4, 16]: 0
- Plant response rating, Deadnettle [4, 17]: 55
- Plant response rating, Deadnettle [4, 18]: 60
- Bluegrass plant response rating [5, 12]: 5
- Plant response rating, Bluegrass [5, 13]: 5
- Plant response rating, Bluegrass [5, 14]: 15
- Plant response rating (scale of 0 to 100), Bluegrass ([5]; Preemergence, 31 g ai/ha): 0
- Plant response rating, Bluegrass [5, 15]: 15
- Plant response rating, Bluegrass [5, 16]: 30
- Bluegrass plant response rating [5, 17]: 50
- Plant response rating, Bluegrass [5, 18]: 10
- Speedwell plant response rating [6, 12]: 50
- Plant response rating, Speedwell [6, 13]: 80
- Plant response rating, Speedwell [6, 14]: 90
- Plant response rating (scale of 0 to 100), Speedwell ([6]; Preemergence, 31 g ai/ha): 55
- Plant response rating, Speedwell [6, 16]: 90
- Plant response rating, Speedwell [6, 17]: 100
- Plant response rating, Speedwell [6, 18]: 65
- Canarygrass plant response rating [7, 12]: 25
- Plant response rating, Canarygrass [7, 13]: 55
- Plant response rating, Canarygrass [7, 14]: 75
- Plant response rating (scale of 0 to 100), Canarygrass ([7]; Preemergence, 31 g ai/ha): 40
- Plant response rating, Canarygrass [7, 15]: 60
- Plant response rating, Canarygrass [7, 16]: 85
- Plant response rating, Canarygrass [7, 17]: 90
- Plant response rating, Canarygrass [7, 18]: 40
- Plant response rating, Barley, Spring [8, 12]: 0
- Plant response rating, Barley, Spring [8, 13]: 5
- Plant response rating, Barley, Spring [8, 14]: 5
- Plant response rating (scale of 0 to 100), Barley, Spring ([8]; Preemergence, 31 g ai/ha): 0
- Plant response rating, Barley, Spring [8, 15]: 0
- Plant response rating, Barley, Spring [8, 16]: 0
- Barley, Spring plant response rating [8, 17]: 0
- Plant response rating, Barley, Spring [8, 18]: 0
- Field Violet plant response rating [9, 12]: 60
- Plant response rating, Field Violet [9, 13]: 75
- Plant response rating, Field Violet [9, 14]: 80
- Plant response rating (scale of 0 to 100), Field Violet ([9]; Preemergence, 31 g ai/ha): 95
- Plant response rating, Field Violet [9, 15]: 100
- Plant response rating, Field Violet [9, 16]: 100
- Plant response rating, Field Violet [9, 17]: 100
- Plant response rating, Field Violet [9, 18]: 85
- Oilseed Rape plant response rating [10, 12]: 20
- Plant response rating, Oilseed Rape [10, 13]: 55
- Plant response rating, Oilseed Rape [10, 14]: 70
- Plant response rating (scale of 0 to 100), Oilseed Rape ([10]; Preemergence, 31 g ai/ha): 0
- Plant response rating, Oilseed Rape [10, 15]: 0
- Plant response rating, Oilseed Rape [10, 16]: 20
- Plant response rating, Oilseed Rape [10, 17]: 40
- Plant response rating, Oilseed Rape [10, 18]: 45
- Ryegrass, Italian plant response rating [11, 12]: 70
- Plant response rating, Ryegrass, Italian [11, 13]: 85
- Plant response rating, Ryegrass, Italian [11, 14]: 90
- Plant response rating (scale of 0 to 100), Ryegrass, Italian ([11]; Preemergence, 31 g ai/ha): 85
- Plant response rating, Ryegrass, Italian [11, 15]: 95
- Plant response rating, Ryegrass, Italian [11, 16]: 100
- Plant response rating, Ryegrass, Italian [11, 17]: 100
- Plant response rating, Ryegrass, Italian [11, 18]: 80
- Kochia plant response rating (kochia (Kochia scoparia); [12]): 50
- Plant response rating, Kochia (kochia (Kochia scoparia); [13]): 65
- Plant response rating, Kochia (kochia (Kochia scoparia); [14]): 70
- Plant response rating (scale of 0 to 100), Kochia (kochia (Kochia scoparia); Preemergence, 31 g ai/ha): 0
- Plant response rating, Kochia (kochia (Kochia scoparia); [15]): 0
- Plant response rating, Kochia (kochia (Kochia scoparia); [16]): 0
- Plant response rating, Kochia (kochia (Kochia scoparia); [17]): 20
- Plant response rating, Kochia (kochia (Kochia scoparia); [18]): 60
